Assay results reported in PMC7287671, “Anticancer Ruthenium Complexes with HDAC Isoform Selectivity” (Molecules, 2020).

How the values were obtained:
[1] = tested on: MCF7 human breast adenocarcinoma cell line; assay: Cell viability assay (ChemoMetec Via1-Cassette); type: cell-based; conditions: MCF7, 96 h, triplicate
Description: viable cells. The experiments were carried out in triplicate.

HDAC1 = biological target: T1, HDAC1 (Homo sapiens, UniProt Q13547); assay: HDAC1 fluorimetric enzyme inhibition assay (BPS Bioscience kit); type: biochemical; conditions: for Percentage HDAC1 activity: activity relative to control with no added inhibitor
T1 construct: FLAG; His; purchased BPS Bioscience
T1 sequence (Q13547 whole entry): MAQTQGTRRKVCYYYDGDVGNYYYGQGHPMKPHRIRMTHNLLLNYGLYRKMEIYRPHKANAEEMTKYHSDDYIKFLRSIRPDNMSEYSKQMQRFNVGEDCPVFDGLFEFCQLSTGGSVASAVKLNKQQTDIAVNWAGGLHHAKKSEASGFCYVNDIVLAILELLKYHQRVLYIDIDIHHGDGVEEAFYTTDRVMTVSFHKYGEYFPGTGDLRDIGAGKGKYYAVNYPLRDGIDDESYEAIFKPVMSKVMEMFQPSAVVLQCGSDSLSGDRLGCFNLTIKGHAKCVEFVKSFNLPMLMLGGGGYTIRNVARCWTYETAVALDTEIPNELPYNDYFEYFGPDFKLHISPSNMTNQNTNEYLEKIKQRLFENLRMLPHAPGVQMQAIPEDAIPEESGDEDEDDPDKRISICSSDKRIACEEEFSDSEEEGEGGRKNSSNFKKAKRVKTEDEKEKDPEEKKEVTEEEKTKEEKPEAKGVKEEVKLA
Description: (§1) These isoforms were chosen as they provide contrasting binding topographies, and HDAC6 in particular is closely linked with cancer metastasis (Figure 2).
(§2) 5. Enzyme Inhibition Assay
(§3) HDAC enzyme inhibition assays were carried out for as stated using commercially available assay kits (BPS Bioscience ) and undertaken in a 96 well plate. All measurements were carried out in triplicate and standard deviation errors are included in the plots. Human recombinant enzymes HDAC1 FLAG-tag His-tag and HDAC6 GST-tag were used. Potential inhibitors were dosed at the required concentration […]
(§4) NaCl, 2.7 mM KCl, 1 mM MgCl 2). A master mixture was made using assay buffer, acetylated substrate specific to HDAC enzyme (200 µM) and BSA (1 mg/mL) in a ratio of buffer:substrate:BSA (6:1:1) and 40 µL added to each well plate. Buffer (10 µL) was added to all blank wells and inhibitor (5 µL) was added to all potential inhibitor wells. HDAC enzymes were diluted based on their stated activity and 5 µL was added to all wells except blanks and the plate incubated at 37 °C for 30 min. Developer was added and the mixture incubated at room temperature for a further 15 min. Fluorescence was measured […]
(§5) Percentage HDAC activity is […]
(§6) determined by quantification of fluorescence relative to control, with no added inhibitor.
(§7) IC 50 values are calculated using least squares regression fitting to equation S2, where Y = calculated HDAC activity at given concentration, X = concentration of inhibitor, a = gradient scaling factor and SP = saturation point (i.e. 100% activity). Errors calculated using the formula for standard […]
(§8) Y = ୣ୶୮ (௔×(௑ିூ ఱబ)) × SP (S2)
(§9) All assays carried out in […]

HDAC6 = biological target: T2, HDAC6 (Homo sapiens, UniProt Q9UBN7); assay: HDAC6 fluorimetric enzyme inhibition assay (BPS Bioscience kit); type: biochemical; conditions: for Percentage HDAC6 activity: activity relative to control with no added inhibitor
T2 construct: GST; purchased BPS Bioscience
T2 sequence (Q9UBN7 1-1215): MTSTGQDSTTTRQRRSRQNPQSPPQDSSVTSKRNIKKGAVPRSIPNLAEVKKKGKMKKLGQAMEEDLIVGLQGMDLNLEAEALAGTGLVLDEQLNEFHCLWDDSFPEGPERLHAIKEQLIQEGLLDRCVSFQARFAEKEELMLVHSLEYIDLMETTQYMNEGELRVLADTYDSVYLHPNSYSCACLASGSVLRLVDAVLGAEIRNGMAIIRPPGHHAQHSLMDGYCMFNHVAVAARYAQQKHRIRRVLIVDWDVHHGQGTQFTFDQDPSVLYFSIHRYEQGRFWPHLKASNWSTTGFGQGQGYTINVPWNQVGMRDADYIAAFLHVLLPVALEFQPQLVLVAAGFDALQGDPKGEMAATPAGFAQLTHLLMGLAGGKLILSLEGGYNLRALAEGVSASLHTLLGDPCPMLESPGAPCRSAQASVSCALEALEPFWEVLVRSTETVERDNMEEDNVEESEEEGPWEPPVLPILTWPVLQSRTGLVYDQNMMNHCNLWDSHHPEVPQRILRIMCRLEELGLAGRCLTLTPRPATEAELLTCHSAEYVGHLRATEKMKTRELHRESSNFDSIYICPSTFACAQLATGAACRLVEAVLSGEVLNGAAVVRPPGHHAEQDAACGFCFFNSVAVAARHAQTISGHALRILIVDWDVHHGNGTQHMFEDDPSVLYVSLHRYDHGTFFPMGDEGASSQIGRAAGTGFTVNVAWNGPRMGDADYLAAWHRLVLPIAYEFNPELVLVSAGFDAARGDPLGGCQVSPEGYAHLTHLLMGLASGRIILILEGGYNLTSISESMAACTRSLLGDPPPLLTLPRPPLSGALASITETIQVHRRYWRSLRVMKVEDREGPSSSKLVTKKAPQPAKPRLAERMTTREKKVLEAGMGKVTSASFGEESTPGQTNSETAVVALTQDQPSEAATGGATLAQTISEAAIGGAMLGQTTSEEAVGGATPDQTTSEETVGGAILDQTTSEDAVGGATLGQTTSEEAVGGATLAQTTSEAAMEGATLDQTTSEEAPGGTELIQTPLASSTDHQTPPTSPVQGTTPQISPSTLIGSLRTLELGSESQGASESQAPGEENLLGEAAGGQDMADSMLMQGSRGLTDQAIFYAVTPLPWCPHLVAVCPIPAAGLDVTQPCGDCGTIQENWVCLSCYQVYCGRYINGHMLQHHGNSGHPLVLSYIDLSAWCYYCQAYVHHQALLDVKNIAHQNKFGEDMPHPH
Description: as §1, §2, §3, §4, §5, §6, §7, §8, §9

Row | Compound | EC50 [1] [nM] | Percentage HDAC1 activity (HDAC1; 0.1 uM inhibitor) [%] | Percentage HDAC1 activity (HDAC1; 1 uM inhibitor) [%] | IC50 (HDAC1; human recombinant HDAC1 FLAG-tag His-tag, triplicate) [nM] | Percentage HDAC6 activity (HDAC6; 0.1 uM inhibitor) [%] | Percentage HDAC6 activity (HDAC6; 1 uM inhibitor) [%] | IC50 (HDAC6; human recombinant HDAC6 GST-tag, triplicate) [nM] | Selectivity Factor (HDAC6; ratio of the IC50 values for HDAC1 and HDAC6)
1 | O=C(CCCCCCC(=O)Nc1cc2cccnc2c2ncccc12)NO [L^1] | 3000 ± 600 | 44 ± 7 | 6 ± 13 | 105 ± 15 | 17 ± 3 | 1.5 ± 1 | 41 ± 2 | 2.6
2 | O=C(CCCCCCC(=O)Nc1ccccc1)NO [SAHA, suberanilohydroxamic acid, reference compound] |  | 70 ± 15 | 12 ± 7 |  | 22 ± 1 | 4 ± 2 |  | 
